Experimental data published in paper PMC9021288 (Nature Communications, 2022).
“And” between values parts separate entries of the source, which are not always exact repeats. Equal values may be shown once. “Also recorded” adds a separate entry of the source.

Tests used:
[1] = system: P. falciparum 3D7 trophozoite-infected RBCs, CoA pathway metabolites; assay: Metabolomics of treated infected RBCs (LC/MS); format: cell-based, Plasmodium falciparum
Description: P. falciparum metabolomics analysis was performed by LC/MS as previously described. Briefly, parasite cultures were tightly synchronized at the ring stage one cycle prior to extraction. Trophozoite cultures at 5-10% parasitemia were purified to >90% parasitemia by magnetic purification. Parasites were counted using a hemocytometer, aliquoted to 1 × 10^8 cells per condition in 5 ml medium and then placed into an incubator for 1 h to allow them to reach a metabolically stable state. […] Blank processing samples were also quenched in the same manner to assess background metabolite levels. The samples were centrifuged, the supernatant was collected in a new tube, dried using a nitrogen gas drying rack and stored at -80 °C until they were run on the LC/MS platform.
For each analytical run, a pooled sample was generated by combining equivalent volumes of each parasite sample to assess metabolite detection and run at the beginning, middle, and end of each analytical batch to detect any possible time-dependent sensitivity changes. The full metabolomics datasets are publicly available on the Metabolomics Workbench database under ST001985[76].

Pharmacokinetics in rats = format: in vivo, Sprague Dawley rats
Description: (§1) Subsequently, samples were spun down at 1640 g for 5-10 min at 4 °C within 30 min after collection and plasma was collected. […] Urine was collected following an intravenous dose in both rat and dog, allowing renal clearance to be estimated. Human renal clearance was estimated from dog renal clearance as previously described[40] and other human PK parameters were predicted using allometric scaling and/or in vitro clearance data. PK parameters were calculated by naïve pooled approach using WinNonLin software (Phoenix, version 6.3).

[2] = Pharmacokinetics in dogs (cassette dosing); format: in vivo, Beagle dogs
Description: as §1

[3] = Metabolite identification in dog plasma and urine; settings: in vivo
human recombinant CYP1A2 = molecular target: T1, human recombinant CYP1A2 (Homo sapiens, UniProt P05177); assay: CYP reaction phenotyping; format: in vitro ADME
T1 construct: purchased Bactosomes (assay run at Cyprotex)
T1 sequence (P05177 1-516): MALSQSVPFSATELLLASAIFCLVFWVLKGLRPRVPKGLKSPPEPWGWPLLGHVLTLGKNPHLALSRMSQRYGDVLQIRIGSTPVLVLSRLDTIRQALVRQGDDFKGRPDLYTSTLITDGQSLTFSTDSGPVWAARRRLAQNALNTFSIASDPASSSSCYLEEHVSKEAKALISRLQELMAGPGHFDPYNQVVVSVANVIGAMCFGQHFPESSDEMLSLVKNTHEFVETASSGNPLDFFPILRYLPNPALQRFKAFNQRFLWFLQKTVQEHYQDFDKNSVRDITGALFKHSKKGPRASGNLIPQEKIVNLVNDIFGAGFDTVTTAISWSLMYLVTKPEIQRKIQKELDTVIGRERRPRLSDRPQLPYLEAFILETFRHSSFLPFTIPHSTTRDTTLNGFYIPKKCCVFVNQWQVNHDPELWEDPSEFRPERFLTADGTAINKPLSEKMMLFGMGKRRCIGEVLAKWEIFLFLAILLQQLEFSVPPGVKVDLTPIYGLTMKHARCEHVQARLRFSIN
Description: In vitro CYP reaction phenotyping was performed at Cyprotex (Alderly Park, United Kingdom). […] The remaining test compound at each time point was analyzed by LC-MS/MS.

[4] = Human PK prediction (allometry, in vitro clearance, GastroPlus)
Description: as §1, with “A blood sample from the saphenous vein was collected into heparinized capillary tubes at multiple intervals between 0.25 and 24 h after dosing. Subsequently,” for “Subsequently,”

[5] = UV scan for phototoxicity; format: physicochemical

With `C[C@@H](CNC(=O)[C@H](O)C(C)(C)CO)NC(=O)c1cc(F)c(F)cc1F` [MMV693183] the “Fold change 4'P-Pan” value ([1]; 24 nM) was 0.6372 and 0.7412, the “Fold change Ac-CoA” value ([1]; 24 nM) was 0.5886 and 0.6667 and the “Fold change CoA” value ([1]; 24 nM) was 1.122. The “Fold change Pan” value ([1]; 24 nM) was 0.8146 and 0.8416, the “Fold change 4'P-Pan” value ([1]; 240 nM) was 0.3498 and 0.3568 and the “Fold change CoA” value ([1]; 240 nM) was 1.064. For the same molecule, the “Fold change Pan” value ([1]; 240 nM) was 1.253 and 0.7224, the “effect on endogenous metabolites” value ([1]; dose-dependent) was “reduced acetyl-CoA and 4-phosphopantothenate levels” and the “Observed hepatic/ predicted hepatic” value (Pharmacokinetics in rats; Rat) was 1.0. The “Observed total-renal = observed hepatic” value (Pharmacokinetics in rats; Rat) was 13.5 mL/min/kg, the “Predicted hepatic plasma clearance” value (Pharmacokinetics in rats; Rat) was 13.3 mL/min/kg and the Norm. conc i.v. (Pharmacokinetics in rats; Rat, Time (hrs) 0) was 0 ng/mL. The Norm. conc i.v. (Pharmacokinetics in rats; Rat, Time (hrs) 0.083333) was 1040 ng/mL and 843.333 ng/mL, the Norm. conc i.v. (Pharmacokinetics in rats; Rat, Time (hrs) 0.25) was 746.667 ng/mL and 613.333 ng/mL and 566.667 ng/mL and the Norm. conc i.v. (Pharmacokinetics in rats; Rat, Time (hrs) 0.5) was 490 ng/mL and 406.667 ng/mL and 376.667 ng/mL. For the same molecule, the Norm. conc i.v. (Pharmacokinetics in rats; Rat, Time (hrs) 1) was 217.333 ng/mL and 175 ng/mL and 167 ng/mL, the Norm. conc i.v. (Pharmacokinetics in rats; Rat, Time (hrs) 2) was 53.3333 ng/mL and 56.3333 ng/mL and 51.6667 ng/mL and the Norm. conc i.v. (Pharmacokinetics in rats; Rat, Time (hrs) 4) was 21.4 ng/mL and 17.9 ng/mL and 18.1 ng/mL. For the same molecule, the Norm. conc p.o. (Pharmacokinetics in rats; Rat, Time (hrs) 0) was 0 ng/mL, the Norm. conc p.o. (Pharmacokinetics in rats; Rat, Time (hrs) 0.25) was 726.667 ng/mL and 573.333 ng/mL and 746.667 ng/mL and the Norm. conc p.o. (Pharmacokinetics in rats; Rat, Time (hrs) 0.5) was 686.667 ng/mL and 511.333 ng/mL and 591.333 ng/mL. For the same molecule, the Norm. conc p.o. (Pharmacokinetics in rats; Rat, Time (hrs) 1) was 380.667 ng/mL and 303.333 ng/mL and 362 ng/mL, the Norm. conc p.o. (Pharmacokinetics in rats; Rat, Time (hrs) 4) was 22.4667 ng/mL and 18.8 ng/mL and 29.5 ng/mL and the Norm. conc p.o. (Pharmacokinetics in rats; Rat, Time (hrs) 8) was 12.2 ng/mL and 7.667 ng/mL and 10.6333 ng/mL. For the same molecule, the “AUC0-∞” value (Pharmacokinetics in rats; i.v. 3 mg/kg, mean) was 2398.4 ng·h/mL, the AUClast (Pharmacokinetics in rats; i.v. 3 mg/kg, mean) was 2394.8 ng·h/mL and the C0 (Pharmacokinetics in rats; i.v. 3 mg/kg, mean) was 3245.1 ng/mL. The Kel (Pharmacokinetics in rats; i.v. 3 mg/kg, mean) was 0.22 h⁻¹, the Vss_obs (Pharmacokinetics in rats; i.v. 3 mg/kg, mean) was 1.9624 L/kg and the CLtotal (Pharmacokinetics in rats; i.v. 3 mg/kg, mean, 3 mg/kg) was 21.1 mL/min/kg and 21.14 mL/min/kg and 21 mL/min/kg. For the same molecule, the T1/2 (Pharmacokinetics in rats; i.v. 3 mg/kg, mean, 3 mg/kg) was 3.1 h and 3.13 h, the “AUC0-∞” value (Pharmacokinetics in rats; p.o. 30 mg/kg, mean) was 29077.1 ng·h/mL and the AUClast (Pharmacokinetics in rats; p.o. 30 mg/kg, mean) was 29063.9 ng·h/mL. It also gave a CLtotal (Pharmacokinetics in rats; p.o. 30 mg/kg, mean) of 17.57 mL/min/kg, a Cmax (Pharmacokinetics in rats; p.o. 30 mg/kg, mean) of 20466.7 ng/mL and a Kel (Pharmacokinetics in rats; p.o. 30 mg/kg, mean) of 0.27 h⁻¹. The T1/2 (Pharmacokinetics in rats; p.o. 30 mg/kg, mean) was 2.57 h, the Tmax (Pharmacokinetics in rats; p.o. 30 mg/kg, mean) was 0.25 h and the “%F” value (Pharmacokinetics in rats; p.o. 30 mg/kg, mean, 30 mg/kg) was 121% and 121.24%. For the same molecule, the “Observed hepatic/ predicted hepatic” value ([2]; Dog) was 0.95, the “Observed total-renal = observed hepatic” value ([2]; Dog) was 10.5 mL/min/kg and the “Predicted hepatic plasma clearance” value ([2]; Dog) was 11.1 mL/min/kg. The Norm. conc i.v. ([2]; Dog, Time (hrs) 0.083333) was 1180 ng/mL and 892 ng/mL and 1160 ng/mL, the Norm. conc i.v. ([2]; Dog, Time (hrs) 0.25) was 732 ng/mL and 660 ng/mL and 906 ng/mL and the Norm. conc i.v. ([2]; Dog, Time (hrs) 0.5) was 414 ng/mL and 439 ng/mL and 345 ng/mL. For the same molecule, the Norm. conc i.v. ([2]; Dog, Time (hrs) 1) was 166 ng/mL and 228 ng/mL and 178 ng/mL, the Norm. conc i.v. ([2]; Dog, Time (hrs) 2) was 52.9 ng/mL and 68.5 ng/mL and 55.6 ng/mL and the Norm. conc i.v. ([2]; Dog, Time (hrs) 4) was 28.7 ng/mL and 29.7 ng/mL and 29.8 ng/mL. For the same molecule, the Norm. conc i.v. ([2]; Dog, Time (hrs) 8) was 14.6 ng/mL and 21.2 ng/mL and 17.8 ng/mL, the Norm. conc i.v. ([2]; Dog, Time (hrs) 24) was 2 ng/mL and 3.19 ng/mL and 2.05 ng/mL and the Norm. conc p.o. ([2]; Dog, Time (hrs) 0.25) was 815 ng/mL and 580 ng/mL and 439 ng/mL. The Norm. conc p.o. ([2]; Dog, Time (hrs) 0.5) was 485 ng/mL and 365 ng/mL and 280.5 ng/mL, the Norm. conc p.o. ([2]; Dog, Time (hrs) 1) was 132.5 ng/mL and 118.5 ng/mL and 171.5 ng/mL and the Norm. conc p.o. ([2]; Dog, Time (hrs) 2) was 29.9 ng/mL and 28.05 ng/mL and 47.05 ng/mL. For the same molecule, the Norm. conc p.o. ([2]; Dog, Time (hrs) 4) was 15.6 ng/mL and 14.15 ng/mL and 21.05 ng/mL, the Norm. conc p.o. ([2]; Dog, Time (hrs) 24) was 1 ng/mL and 1.115 ng/mL and the “AUC0-∞” value ([2]; i.v. 1 mg/kg, mean) was 1451 ng·h/mL. For the same molecule, the AUClast ([2]; i.v. 1 mg/kg, mean) was 1423 ng·h/mL, the Cmax ([2]; i.v. 1 mg/kg, mean) was 1077 ng/mL and the Vss_obs ([2]; i.v. 1 mg/kg, mean) was 1.79 L/kg. For the same molecule, the CLtotal ([2]; i.v. 1 mg/kg, mean, 1 mg/kg) was 11.5 mL/min/kg and 11.52 mL/min/kg, the T1/2 ([2]; i.v. 1 mg/kg, mean, 1 mg/kg) was 4.2 h and 4.23 h and the “AUC0-∞” value ([2]; p.o. 2 mg/kg, mean) was 1902 ng·h/mL. The AUClast ([2]; p.o. 2 mg/kg, mean) was 1844 ng·h/mL, the Cmax ([2]; p.o. 2 mg/kg, mean) was 1286 ng/mL and the T1/2 ([2]; p.o. 2 mg/kg, mean) was 2.93 h. For the same molecule, the F ([2]; p.o. 2 mg/kg, mean, 2 mg/kg) was 64% and 63.7%, the Tmax ([2]; p.o. 2 mg/kg, mean, 2 mg/kg) was 0.333 h and the “detected in Plasma” value [3] was “Yes”. For the same molecule, the “detected in Urine” value [3] was “Yes”, the “Compound remaining (0 min = 100)” value (human recombinant CYP1A2; Incubation time (minutes) 0) was 100 and the “Compound remaining (0 min = 100)” value (human recombinant CYP1A2; Incubation time (minutes) 5) was 98.3. The “Compound remaining (0 min = 100)” value (human recombinant CYP1A2; Incubation time (minutes) 15) was 100, the “Compound remaining (0 min = 100)” value (human recombinant CYP1A2; Incubation time (minutes) 30) was 98.6 and the “Compound remaining (0 min = 100)” value (human recombinant CYP1A2; Incubation time (minutes) 45) was 102. The “biopharmaceutical classification system class” value [4] was “class I”, the “estimated human total clearance” value ([4]; allometry with MLP correction) was 1.8 mL/min/kg and the “CL, total” value ([4]; human predicted) was 1.11 mL/min/kg. The V1 ([4]; human predicted) was 0.843 L/kg, the V2 ([4]; human predicted) was 1.97 L/kg and the Vss ([4]; human predicted) was 2.81 L/kg. The half-life ([4]; human predicted) was 32.4 h, the “CL, renal” value ([4]; human predicted from dog renal clearance) was 0.60 mL/min/kg and the “CL, hepatic” value ([4]; human predicted from in vitro hepatocyte clearance) was 0.51 mL/min/kg. The allometric clearance exponent ([4]; simple allometry) was 0.967 and the UV absorbance [5] was “No absorbance >290 nm; also recorded: no detectable absorption above 290 nm”.
